Measurements reported in patent US11679110B2, “Methods of treating disorders using CSF1R inhibitors” (Deciphera Pharmaceuticals, LLC, priority 2018, dated 2023).

How the values were obtained:
in vivo = details: Sprague-Dawley, rat
[1] = rat, in vivo
[2] = tested on: diffuse-type tenosynovial giant cell tumor; assay: Tumor response and symptoms in DTGCT patients (case studies), RECIST version 1.1; assay type: in vivo, human
Description: (§1) Tumor response will be assessed by tumor type using the following criteria: for solid tumors and DTGCT: RECIST, Version 1.1; and for bone-only disease: a new lesion(s) identified by bone scan will be considered as disease progression.
Additional descriptions of case studies of patients with DTGCT treated within this study are provided below: […]

CD16+ monocytes = assay: Depletion of CSF1R-expressing (CD16+) monocytes in peripheral blood of patients, flow cytometry; assay type: in vivo, human; details: C2D1 compared to C1D1
Experimental: (§2) PK analysis was conducted on all 38 patients. Serial blood samples were collected for PK and took place on either Day −7, Cycle 1, Day 1 (C1D1) and C2D1 at pre-dose, 0.5, 1, 2, 4, 6, 8, 10-12, and 24 hr time points or Day −7, C1D1, C1D8, and C2D1 at pre-dose, 1, 2, 4, 6, and 8 hr time points, or C1D1, C1D8, and C2D1 at pre-dose, 1, 2, 4, 6, and 8 hr time points. High fat meal was given prior to dosing of Compound 1 on Day −7. PD effects were measured by two methodologies: 1) depletion of CSF1R-expressing monocytes in peripheral blood (Cohorts 1-7) from C1D1, C1D15 and C2D1; and 2) increase of plasma levels of CSF1 and IL-34, the ligands for CSF1R (Cohorts 1-7) on C1D1, C1D15, and C2D1. For the CD16^+ monocyte assay, whole blood collected in an EDTA vacutainer was aliquoted into tubes and incubated with fluorescently-labeled antibodies (CD14-Alexa488 (BD Pharmingen); CD16-PE-Cy7 (BD Pharmingen); and TIE2-APC (R&D Systems). After incubation, red blood cells were lysed, and the remaining cells were washed several times before being analyzed on a flow cytometer. For the plasma CSF1 assay or IL-34, whole blood collected in an EDTA vacutainer was centrifuged, and the plasma was collected and frozen. Plasma levels of CSF1 or IL-34 were measured using a commercial ELISA kit (R&D Systems).

[3] = biological target: unphosphorylated c-KIT kinase (Homo sapiens (Human), UniProt P10721); assay: c-KIT kinase assay, coupled pyruvate kinase/lactate dehydrogenase; assay type: biochemical; details: enzymatic assay, 1 mM ATP
CSF1 = assay: Plasma CSF1 levels in patients, ELISA; assay type: in vivo, human; details: average at C2D1 vs C1D1
Experimental: as §2

advanced solid tumors = assay: Antitumor activity in patients with advanced solid tumors, RECIST 1.1; assay type: in vivo, human
Description: The study enrolls patients with solid tumors or manifestations of cancer with known contribution of macrophages or phagocytes, i.e., tumors known to have expression of the receptor colony-stimulating factor 1 receptor (CSF1R) or its ligands, Colony stimulating factor-1 (CSF1) or interleukin (IL)-34, confirmed by the literature or prior testing. […]. In addition, tumor-associated manifestations featuring macrophage or osteoclast pathophysiology including bone metastases and ascites or effusions that typically contain high levels of macrophages will be enrolled. […].
The study consists of a screening period that is conducted within 28 days prior to the first dose of study drug, a treatment period of 28-day cycles, an End of Treatment visit, and Follow-up Safety visits at both 30 days and 75 days (±5 days) after the last dose of study drug. Patients will be eligible to receive study drug for up to 2 years until tumor progression, occurrence of unacceptable toxicity, or withdrawal of consent, or until commercial supply of the drug is available. […] Patients may continue receiving treatment after tumor progression. […]
as §1

[4] = dog, 13-week

Sequence of unphosphorylated c-KIT kinase (P10721 other isoform, or with tags, fused parts or gaps): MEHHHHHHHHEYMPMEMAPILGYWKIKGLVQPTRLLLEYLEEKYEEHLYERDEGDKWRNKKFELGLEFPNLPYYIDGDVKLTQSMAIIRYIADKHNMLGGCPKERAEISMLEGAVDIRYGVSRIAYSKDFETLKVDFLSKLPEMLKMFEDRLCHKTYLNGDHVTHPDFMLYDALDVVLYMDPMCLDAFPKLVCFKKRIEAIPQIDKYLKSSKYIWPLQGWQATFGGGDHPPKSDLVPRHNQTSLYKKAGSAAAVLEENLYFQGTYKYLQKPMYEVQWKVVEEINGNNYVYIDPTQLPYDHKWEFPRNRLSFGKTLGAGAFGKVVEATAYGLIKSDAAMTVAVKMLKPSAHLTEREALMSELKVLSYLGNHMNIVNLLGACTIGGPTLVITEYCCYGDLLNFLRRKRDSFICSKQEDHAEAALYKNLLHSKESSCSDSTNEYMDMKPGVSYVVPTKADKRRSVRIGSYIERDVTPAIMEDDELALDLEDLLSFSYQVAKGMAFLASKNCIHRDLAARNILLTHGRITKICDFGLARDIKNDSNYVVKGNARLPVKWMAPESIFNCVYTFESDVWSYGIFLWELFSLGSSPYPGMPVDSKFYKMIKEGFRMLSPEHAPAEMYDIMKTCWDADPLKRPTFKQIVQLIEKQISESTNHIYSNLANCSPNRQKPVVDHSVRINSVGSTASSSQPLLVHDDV

Which results are given for `Cc1nc(-c2cnc(NC(C)C)n(C)c2=O)ccc1Oc1ccnc(-c2cnn(C)c2)c1` [Compound 1, 2-(isopropylamino)-3-methyl-5-(6-methyl-5-((2-(1-methyl-1H-pyrazol-4-yl)pyridin-4-yl)oxy)pyridin-2-yl)pyrimidin-4(3H)-one]?
NOAEL at 13 weeks (in vivo): 1.88 mg/kg/day; STD10 ([1]; Sprague-Dawley, 13 weeks): 7.5 mg/kg/day; increases in AST, ALT, GLDH and ALP activities [1]: minimal or mild; symptoms ([2]; DTGCT Patient 1, Cohort 5): Improved pain and swelling and effusion were nearly resolved in the first cycle; decrease in tumor size from baseline ([2]; DTGCT Patient 1, Cohort 5 (30 mg twice weekly maintenance), C3D1): 48%; decrease in tumor size from baseline ([2]; DTGCT Patient 1, Cohort 5, C5D1): 61%; decrease in tumor size from baseline ([2]; DTGCT Patient 1, Cohort 5, C7D1): 75%; decrease in tumor size from baseline ([2]; DTGCT Patient 1, Cohort 5, C10D1): 84%; symptoms ([2]; DTGCT Patient 2, Cohort 5): pain improvement, increased range of motion, and less stiffness; decrease in tumor size from baseline ([2]; DTGCT Patient 2, Cohort 5, C3D1): 25%; symptoms ([2]; DTGCT Patient 3, Cohort 5): rapid symptom improvement, with less pain and swelling and improved range of motion after the first cycle; decrease in tumor size from baseline ([2]; DTGCT Patient 3, Cohort 5, C3D1): 24%; tumor response ([2]; DTGCT patient): up to 84%; decrease in levels of CSF1R-expressing monocytes (CD16+ monocytes; Cohort 2): ~48%; decrease in levels of CSF1R-expressing monocytes (CD16+ monocytes; Cohort 3): ~54%; decrease in levels of CSF1R-expressing monocytes (CD16+ monocytes; Cohort 4): ~79%; decrease in levels of CSF1R-expressing monocytes (CD16+ monocytes; Cohort 5): ~98%; IC50 [3]: 864 nM; increase in plasma CSF1 (CSF1; Cohort 1): 6 fold; increase in plasma CSF1 (CSF1; Cohort 2): 1.5 fold; increase in plasma CSF1 (CSF1; Cohort 3): 2.9 fold; increase in plasma CSF1 (CSF1; Cohort 4): 3.2 fold; increase in plasma CSF1 (CSF1; Cohort 5): 43 fold; duration of stable disease (advanced solid tumors; a patient with thymoma): 6 months; patients with a best response of stable disease (advanced solid tumors; advanced solid tumors, dose escalation): 5 patients; microscopic liver changes [4]: without corresponding microscopic liver changes; increases in AST, GLDH and creatine kinase activities ([4]; 8 mg/kg/day): minimal or mild
